Data as given in patent publication US9938249B2, “Anti-amyloid compounds containing benzofurazan” (Treventis Corporation, priority 2014, dated 2018).

Target: Terminally biotinylated beta-amyloid (Aβ42) (Homo sapiens, UniProt P05067)
Assay: Aβ42 biotinylated (biotin-AB) oligomerization assay, NeutrAvidin capture ELISA
Assay type: biochemical
Conditions: approximate value; 1 hr oligomerization at room temperature; read-out: IC50 Aβ 42-bio
Method: Aβ42 Biotinylated Assay Terminally biotinylated beta-amyloid (biotin-AB) was dissolved in HFIP at the concentration of 1 mg/ml and aliquoted to 50 μl/tube in 0.65 ml colored microfuge tubes (Fisher 02-681-248). The aliquots were diluted immediately by adding 450 μl of HFIP to 0.1 mg/ml. Approximately 46 ul (containing approximately 4.6 ug of biotin-AB) were taken from a tube, 100 ul of HFIP added, vortexed, and dried to a thin film under an N2 stream. 100 μl of trifluoroacetic acid (TFA) was added and vortexed. After 10 minute incubation at room temperature in a hood, resulting in disaggregation of seeds, the sample was vortexed again and dried again to a thin film under an N2 stream. 100 μl of HFIP was added, mixed, and the biotin-AB sample was dried for a third time under an N2 stream to remove residual TFA. The treated biotin-AB was dissolved in DMSO to a final peptide concentration of […] (SOX). An ELISA “capture” plate (Costar 9018) was coated with 50 μl of 1 μg/ml NeutrAvidin™ (NA) in 10 mM sodium phosphate buffer, pH 7.5. (NeutrAvidin can be prepared as 1 mg/ml (1000×) in milliQ water/10% glycerol and stored at −80° C. before use.) The plate was sealed plate with adhesive film and stored at 4° C. overnight, then blocked for 2 hours (unsealed) at room temperature with 200 μl/well OFB+0.1% v/v Tween 20. The “capture” plate was allowed to come to room temperature. Several dilutions of test compound were prepared with 100% DMSO, according to the desired concentration to be tested. 2.5 μl of diluted test compound was pipetted into the bottom of each well of a 96-well “dilution” polypropylene plate (Costar 3365), to which was added 250 ul of Oligomer Formation Buffer (OFB: 20 mM sodium phosphate, pH 7.5-150 mM NaCl). To begin oligomerization, 2 μl/well of the biotin-AB was added to the bottom of each well of a 96-well “reaction” polypropylene plate (Costar 3365) and 100 ul of each well of the “dilution” plate was transferred to the “reaction” plate (final concentration of DMSO being up to 1%). The reaction plate was sealed and incubated for 1 hr at room temperature without shaking. The reaction was then stopped by the addition of 50 ul of 0.3% Tween 20 in water. The “capture” plate blocking solution was removed, and 50 ul of each well of the “reaction” plate was transferred to each well of the “capture” plate. The “capture” plate was sealed and incubated for 2 hours at room temperature with shaking at 150 rpm. The “capture” plate was then washed on a plate washer (3×) with 200 ul/well TBST (20 mM Tris-HCL, pH 7.5/150 mM NaCl/0.1% Tween 20). 50 ul of Streptavidin-horseradish […] (1:20,000 dilution) in OFB+0.1% Tween 20 was added to each well, the “capture” plate was sealed and incubated for 1 hr with shaking at 150 rpm. As before, the plate was washed, then 100 ul of TMB/H2O2 substrate solution was added to each well. After 5-10 minutes, 100 ul of 1% v/v sulfuric acid was added and the absorbance of each well was read at 450 nm using a standard plate reader. Data is summarized in the table below; numbers given in parenthesis for the Aβ 40 Thioflavin T assays are the values in that particular experiment for compound ID 1027, given as the first entry in this table for structural comparison. “IC50 Aβ42-bio” column refers to the approximate value of the Aβ42 biotinylated assay IC50 in micromoles/L.

Terminally biotinylated beta-amyloid (Aβ42), sequence (P05067 672-713, species assumed): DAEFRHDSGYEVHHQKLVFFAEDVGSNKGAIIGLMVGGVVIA

Compound | IC50
Fc1ccc(-c2cc(N3CC(CN4CCCC4)C3)c3nonc3c2)cc1 [compound 1547] | 12 µM
NC(=O)c1cc(N2CC(CN3CCCC3)C2)c2nonc2c1 [compound 1548] | 25.3 µM
CN1CCCCC1c1cc(N2CC(CN3CCCC3)C2)c2nonc2c1 (stereo not drawn) [compound 1557] | 18.7 µM
COc1cc(-c2cc(N3CC(CN4CCOCC4)C3)c3nonc3c2)ccc1F [compound 1584, 6-(4-fluoro-3-methoxyphenyl)-4-(3-(morpholinomethyl)azetidin-1-yl) benzo[c][1,2,5]oxadiazole] | 7 µM
OC(c1ccc(-c2cc(N3CC(CN4CCOCC4)C3)c3nonc3c2)s1)C(F)(F)F (stereo not drawn) [compound 1562, 2,2,2-trifluoro-1-(5-(7-(3-(morpholinomethyl)azetidin-1-yl)benzo[c][1,2,5]oxadiazol-5-yl)thiophen-2-yl)ethan-1-ol] | 2.7 µM
c1csc(-c2cc(N3CC(CN4CCCC4)C3)c3nonc3c2)n1 [compound 1560] | 6.7 µM
OC(c1ncccc1-c1cc(N2CC(CN3CCOCC3)C2)c2nonc2c1)C(F)(F)F (stereo not drawn) [compound 1569, 2,2,2-trifluoro-1-(3-(7-(3-(morpholinomethyl)azetidin-1-yl)benzo[c][1,2,5]oxadiazol-5-yl)pyridin-2-yl) ethan-1-ol] | 11.5 µM
COc1ccc(-c2cc(N3CC(CN4CCOCC4)C3)c3nonc3c2)cc1Cl [compound 1578, 6-(3-chloro-4-methoxyphenyl)-4-(3-(morpholinomethyl)azetidin-1-yl) benzo[c][1,2,5]oxadiazole] | 2.9 µM
NC(=O)c1cccc(-c2cc(N3CC(CN4CCOCC4)C3)c3nonc3c2)c1 [compound 1576, 3-(7-(3-(morpholinomethyl)zetidin-1-yl)benzo[c][1,2,5]oxadiazol-5-yl) benzamide] | 46 µM
CC(NC1CC1)c1cc(N2CC(CN3CCCC3)C2)c2nonc2c1 (stereo not drawn) [compound 1551] | 6.8 µM
Cc1cc(C)c(-c2cc(N3CC(CN4CCCC4)C3)c3nonc3c2)c(C)c1 [compound 1558] | 5.9 µM
Cc1ccc(C)c(-c2cc(N3CC(CN4CCCC4)C3)c3nonc3c2)c1 [compound 1559] | 7.6 µM
COc1ccc(-c2cc(N3CC(CN4CCOCC4)C3)c3nonc3c2)cc1OC [compound 1573, 6-(3,4-dimethoxyphenyl)-4-(3-(morpholinomethyl)azetidin-1-yl) benzo[c][1,2,5]oxadiazole] | 12.9 µM
CC(=O)N(C1CC1)C(C)c1cc(N2CC(CN3CCCC3)C2)c2nonc2c1 (stereo not drawn) [compound 1550] | 5.3 µM
N#Cc1cc(N2CC(CN3CCOCC3)C2)c2nonc2c1 [compound 1570, 7-(3-(morpholinomethyl)azetidin-1-yl) benzo[c][1,2,5]oxadiazole-5-carbonitrile] | > 20 µM
OCc1nc(-c2cc(N3CC(CN4CCOCC4)C3)c3nonc3c2)cs1 [compound 1566] | > 20 µM
COCCN1CCCCC1c1cc(N2CC(CN3CCCC3)C2)c2nonc2c1 (stereo not drawn) [compound 1556] | 6.6 µM

Further lines, results first:

IC50 | Compound
4.98 µM | OC(c1ccc(-c2cc(N3CC(CN4CCOCC4)C3)c3nonc3c2)cn1)C(F)(F)F (stereo not drawn) [compound 1618, 2,2,2-trifluoro-1-(5-(7-(3-(morpholinomethyl)azetidin-1-yl)benzo[c][1,2,5]oxadiazol-5-yl)pyridin-2-yl)ethan-1-ol]
10.3 µM | OC(c1ccncc1-c1cc(N2CC(CN3CCOCC3)C2)c2nonc2c1)C(F)(F)F (stereo not drawn) [compound 1636, 2,2,2-trifluoro-1-(3-(7-(3-(morpholinomethyl)azetidin-1-yl)benzo[c][1,2,5]oxadiazol-5-yl)pyridin-4-yl) ethan-1-ol]
> 20 µM | CN(C)C(=O)c1ccccc1-c1cc(N2CC(CN3CCOCC3)C2)c2nonc2c1 [compound 1615]
5.6 µM | OC1(c2cc(N3CC(CN4CCOCC4)C3)c3nonc3c2)CC(OCc2ccccc2)C1 (stereo not drawn) [compound 1692, 3-(benzyloxy)-1-(7-(3-(morpholinomethyl)azetidin-1-yl)benzo[c][1,2,5]oxadiazol-5-yl) cyclobutan-1-ol]
8.6 µM | OC(c1coc(-c2cc(N3CC(CN4CCOCC4)C3)c3nonc3c2)n1)C(F)(F)F (stereo not drawn) [compound 1608, 2,2,2-trifluoro-1-(2-(7-(3-(morpholinomethyl)azetidin-1-yl)benzo[c][1,2,5]oxadiazol-5-yl)oxazol-4-yl)ethan-1-ol]
14.2 µM | FC(F)(F)c1nc(-c2cc(N3CC(CN4CCOCC4)C3)c3nonc3c2)no1 [compound 1643, 4-(3-(morpholinomethyl)azetidin-1-yl)-6-(5-(trifluoromethyl)-1,2,4-oxadiazol-3-yl)benzo[c][1,2,5]oxadiazole]
22.6 µM | OC1(c2ccc(-c3cc(N4CCC(N5CCOCC5)CC4)c4nonc4c3)cc2)COC1 [compound 1717]
> 20 µM | CC(C)(O)C1CC1c1cc(N2CC(CN3CCOCC3)C2)c2nonc2c1 (stereo not drawn) [compound 1666, 2-(2-(7-(3-(morpholinomethyl)azetidin-1-yl)benzo[c][1,2,5]oxadiazol-5-yl)cyclopropyl)propan-2-ol]
7.5 µM | OC(c1cnc(-c2cc(N3CC(CN4CCCC4)C3)c3nonc3c2)s1)C(F)(F)F (stereo not drawn) [compound 1597]
3 µM | OC1(c2cccc(-c3cc(N4CC(CN5CCOCC5)C4)c4nonc4c3)c2)COC1 [compound 1638]
16.2 µM | CC(C)(O)c1ccc(-c2cc(N3CC(CN4CCOCC4)C3)c3nonc3c2)cc1 [compound 1616]
11.3 µM | OC(c1cccc(-c2cc(N3CC(CN4CCOCC4)C3)c3nonc3c2)n1)C(F)(F)F (stereo not drawn) [compound 1619, 2,2,2-trifluoro-1-(6-(7-(3-(morpholinomethyl)azetidin-1-yl)benzo[c][1,2,5]oxadiazol-5-yl)pyridin-2-yl)ethan-1-ol]
26.1 µM | OC(c1ncc(-c2cc(N3CC(CN4CCOCC4)C3)c3nonc3c2)o1)C(F)(F)F (stereo not drawn) [compound 1677]
10.9 µM | OC(c1csc(-c2cc(N3CC(CN4CCOCC4)C3)c3nonc3c2)n1)C(F)(F)F (stereo not drawn) [compound 1626]
11.1 µM | OC(c1ccnc(-c2cc(N3CC(CN4CCOCC4)C3)c3nonc3c2)c1)C(F)(F)F (stereo not drawn) [compound 1620, 2,2,2-trifluoro-1-(2-(7-(3-(morpholinomethyl)azetidin-1-yl)benzo[c][1,2,5]oxadiazol-5-yl)pyridin-4-yl)ethan-1-ol]
> 20 µM | COc1ncccc1-c1cc(N2CC(CN3CCOCC3)C2)c2nonc2c1 [compound 1658, 6-(2-methoxypyridin-3-yl)-4-(3-(morpholinomethyl)azetidin-1-yl) benzo[c][1,2,5]oxadiazole]
> 20 µM | OCc1cnc(-c2cc(N3CC(CN4CCOCC4)C3)c3nonc3c2)s1 [compound 1594]
2.4 µM | CC(=O)NC1CCN(c2cc(-c3ccc(C4(O)COC4)cc3)cc3nonc23)CC1 [compound 1735]
10.4 µM | OC(c1nc(-c2cc(N3CC(CN4CCOCC4)C3)c3nonc3c2)cs1)C(F)(F)F (stereo not drawn) [compound 1627]
9.7 µM | OC1(c2ccc(-c3cc(N4CCC(CN5CCOCC5)CC4)c4nonc4c3)cc2)COC1 [compound 1736]
30.1 µM | Cn1ncc(C(O)C(F)(F)F)c1-c1cc(N2CC(CN3CCOCC3)C2)c2nonc2c1 (stereo not drawn) [compound 1651]
3.2 µM | OC1(c2ccc(-c3cc(N4CC(CN5CCOCC5)C4)c4nonc4c3)cc2)COC1 [compound 1639]
